Reference: patent publication US9546168B2, “ERK inhibitors” (Merck Sharp & Dohme Corp., priority 2013, dated 2017)

Each compound was assayed against phosphorylated active hERK2 enzyme (Homo sapiens (Human), UniProt P28482) (assay: Active Human ERK2 (hERK2) Activity Assay (IMAP-FP)). Conditions: 0.5 nM hERK2, 30 μM ATP, 10 point titration.
phosphorylated active hERK2 enzyme, sequence (P28482 whole entry): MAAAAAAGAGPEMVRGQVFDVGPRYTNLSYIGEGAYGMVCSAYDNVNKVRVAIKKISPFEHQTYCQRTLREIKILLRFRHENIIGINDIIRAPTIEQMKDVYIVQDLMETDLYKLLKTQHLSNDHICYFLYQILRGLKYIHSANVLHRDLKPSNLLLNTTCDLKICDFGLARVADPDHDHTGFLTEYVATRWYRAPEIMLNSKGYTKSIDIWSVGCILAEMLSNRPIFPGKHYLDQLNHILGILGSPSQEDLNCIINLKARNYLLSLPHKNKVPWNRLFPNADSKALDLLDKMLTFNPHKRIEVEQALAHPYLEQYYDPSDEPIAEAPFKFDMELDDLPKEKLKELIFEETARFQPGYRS
Type: biochemical
Procedure: Active Human ERK2 (hERK2) Activity Assay:
Activated ERK2 activity was determined in an IMAP-FP assay (Molecular Devices). Using this assay format, the potency (IC50) of each compound was determined from a 10 point (1:3 serial dilution, 3 μM starting compound concentration) titration curve using the following outlined procedure. […] Following a 15 minute compound & enzyme incubation, each reaction was initiated by the addition of 10 μL kinase buffer containing 2.45 μM ERK2 IMAP substrate peptides and 75 μM ATP. The final reaction in each well of 25 μL consists of 0.5 nM hERK2, 900 nM unlabeled peptide, 80 nM labeled-peptide, and 30 μM ATP. Phosphorylation reactions were allowed to proceed for 60 minutes and were immediately quenched by the addition of 60 μL IMAP detection beads (1:1000 dilutions) in IMAP binding buffer (Molecular Devices) with 24 mM NaCl. Plates were read on EnVision reader after 60 minutes binding equilibration using Fluorescence Polarization protocol (Perkin Elmer).
C[C@@H](NC(=O)Nc1cc2[nH]nc(C(F)(F)F)c2c(CO)n1)c1ccccc1 [Example 29, (R)-1-(4-(hydroxymethyl)-3-(trifluoromethyl)-1H-pyrazolo[4,3-c]pyridin-6-yl)-3-(1-phenylethyl)urea] showed an IC50 of 13.2 nM. For CC(C)(O)[C@@H](NC(=O)Nc1cc2[nH]nc(C3CC3)c2c(CO)n1)c1ccccc1 [Example 6, 1-[3-cyclopropyl-4-(hydroxymethyl)-1H-pyrazolo[4,3-c]pyridin-6-yl]-3-[(1S)-2-hydroxy-2-methyl-1-phenylpropyl]urea], the IC50 was 4.34 nM. CC(C)(O)[C@@H](NC(=O)Nc1cc2[nH]nc(C3CC3)c2c(CO)n1)c1ccc(F)cc1 [Example 7, 1-[3-cyclopropyl-4-(hydroxymethyl)-1H-pyrazolo[4,3-c]pyridin-6-yl]-3-[(1S)-1-(4-fluorophenyl)-2-hydroxy-2-methylpropyl]urea] gave an IC50 of 0.83 nM. For C[C@@H](NC(=O)Nc1cc2[nH]nc(-c3ccnc(C#N)c3)c2c(CO)n1)c1ccccc1 [Example 12, 1-[3-(2-cyanopyridin-4-yl)-4-(hydroxymethyl)-1H-pyrazolo[4,3-c]pyridin-6-yl]-3-[(1R)-1-phenylethyl]urea], the IC50 was 1.64 nM. Work on Cc1nc(NC(=O)N[C@H](C)c2ccccc2)cc2[nH]nc(-c3ccnc(F)c3)c12 [Example 2, 1-[3-(2-fluoropyridin-4-yl)-4-methyl-1H-pyrazolo[4,3-c]pyridin-6-yl]-3-[(1R)-1-phenylethyl]urea] yielded an IC50 of 1.24 nM. With CC(O)c1n[nH]c2cc(NC(=O)N[C@H](C)c3ccccc3)nc(CO)c12 (stereo partly drawn) [Example 27, 1-(3-(1-hydroxyethyl)-4-(hydroxymethyl)-1H-pyrazolo[4,3-c]pyridin-6-yl)-3-((R)-1-phenylethyl)urea] the IC50 was 5.52 nM. In the case of Cc1cc(-c2n[nH]c3cc(NC(=O)N[C@H](C)c4ccccc4)nc(C)c23)ccn1 [Example 1, (R)-1-(4-Methyl-3-(2-methylpyridin-4-yl)-1H-pyrazolo[4,3-c]pyridin-6-yl)-3-(1-phenylethyl)urea], the IC50 is reported as 0.37 nM. C[C@@H](NC(=O)Nc1cc2[nH]nc(CO)c2c(CO)n1)c1ccccc1 [Example 25, (R)-1-(3,4-bis(hydroxymethyl)-1H-pyrazolo[4,3-c]pyridin-6-yl)-3-(1-phenylethyl)urea] gave an IC50 of 1.85 nM. Compound CC(C)(O)[C@@H](NC(=O)Nc1cc2[nH]nc(C(F)F)c2c(CO)n1)c1ccccc1 [Example 22, (S)-1-(3-(difluoromethyl)-4-(hydroxymethyl)-1H-pyrazolo[4,3-c]pyridin-6-yl)-3-(2-hydroxy-2-methyl-1-phenylpropyl)urea] has an IC50 of 0.75 nM. Work on CC(C)(O)[C@@H](NC(=O)Nc1cc2[nH]nc(-c3ccccc3)c2c(CO)n1)c1ccccc1 [Example 18, 1-[(1S)-2-hydroxy-2-methyl-1-phenylpropyl]-3-[4-(hydroxymethyl)-3-phenyl-1H-pyrazolo[4,3-c]pyridin-6-yl]urea] yielded an IC50 of 0.37 nM. With C[C@@H](O)[C@@H](NC(=O)Nc1cc2[nH]nc(C3CC3)c2c(CO)n1)c1ccccc1 [Example 9, 1-[3-cyclopropyl-4-(hydroxymethyl)-1H-pyrazolo[4,3-c]pyridin-6-yl]-3-[(1S,2R)-2-hydroxy-1-phenylpropyl]urea] the IC50 was 0.75 nM. CC(C)(O)[C@@H](NC(=O)Nc1cc2[nH]nc(C(F)F)c2c(CO)n1)c1ccc(F)cc1 [Example 23, 1-[3-(difluoromethyl)-4-(hydroxymethyl)-1H-pyrazolo[4,3-c]pyridin-6-yl]-3-[(1S)-1-(4-fluorophenyl)-2-hydroxy-2-methylpropyl]urea] showed an IC50 of 0.49 nM. CC(=O)c1n[nH]c2cc(NC(=O)N[C@H](C)c3ccccc3)nc(CO)c12 [Example 26, (R)-1-(3-acetyl-4-(hydroxymethyl)-1H-pyrazolo[4,3-c]pyridin-6-yl)-3-(1-phenylethyl)urea] showed an IC50 of 12.7 nM. COCc1nc(NC(=O)N[C@H](C)c2ccccc2)cc2[nH]nc(-c3ccnc(C)c3)c12 [Example 20, (R)-1-(4-(Methoxymethyl)-3-(2-methylpyridin-4-yl)-1H-pyrazolo[4,3-c]pyridin-6-yl)-3-(1-phenylethyl)urea] showed an IC50 of 1.13 nM. CC(C)(O)[C@@H](NC(=O)Nc1cc2[nH]nc(-c3ccc(F)cc3)c2c(CO)n1)c1ccccc1 [Example 13, 1-[3-(4-fluorophenyl)-4-(hydroxymethyl)-1H-pyrazolo[4,3-c]pyridin-6-yl]-3-[(1S)-2-hydroxy-2-methyl-1-phenylpropyl]urea] gave an IC50 of 0.31 nM. For C[C@@H](NC(=O)Nc1cc2[nH]nc(C3CC3)c2c(CO)n1)c1ccccc1 [Example 5, (R)-1-(3-cyclopropyl-4-(hydroxymethyl)-1H-pyrazolo[4,3-c]pyridin-6-yl)-3-(1-phenylethyl)urea], the IC50 was 0.72 nM. With Cc1cc(-c2n[nH]c3cc(NC(=O)N[C@H](C)c4ccccc4)nc(CO)c23)ccn1 [Example 4, (R)-1-(4-(hydroxymethyl)-3-(2-methylpyridin-4-yl)-1H-pyrazolo[4,3-c]pyridin-6-yl)-3-(1-phenylethyl)urea] the IC50 was 0.39 nM. For C[C@@H](NC(=O)Nc1cc2[nH]nc(C(F)F)c2c(CO)n1)c1ccccc1 [Example 24, 1-[3-(difluoromethyl)-4-(hydroxymethyl)-1H-pyrazolo[4,3-c]pyridin-6-yl]-3-[(1R)-1-phenylethyl]urea], the IC50 was 1.25 nM. CC(C)(O)[C@@H](NC(=O)Nc1cc2[nH]nc(-c3ccc(C#N)cc3)c2c(CO)n1)c1ccccc1 [Example 19, 1-[3-(4-cyanophenyl)-4-(hydroxymethyl)-1H-pyrazolo[4,3-c]pyridin-6-yl]-3-[(1S)-2-hydroxy-2-methyl-1-phenylpropyl]urea] was tested, and the IC50 was 0.53 nM. Compound C[C@@H](NC(=O)Nc1cc2[nH]nc(-c3ccnc(F)c3)c2c(CO)n1)c1ccccc1 [Example 3, (R)-1-(3-(2-fluoropyridin-4-yl)-4-(hydroxymethyl)-1H-pyrazolo[4,3-c]pyridin-6-yl)-3-(1-phenylethyl)urea] has an IC50 of 0.92 nM. Work on CC(F)(F)c1n[nH]c2cc(NC(=O)N[C@@H](c3ccccc3)C(C)(C)O)nc(CO)c12 [Example 28, (S)-1-(3-(1,1-difluoroethyl)-4-(hydroxymethyl)-1H-pyrazolo[4,3-c]pyridin-6-yl)-3-(2-hydroxy-2-methyl-1-phenylpropyl)urea] yielded an IC50 of 14.1 nM. C[C@@H](NC(=O)Nc1cc2[nH]nc(-c3ccc(F)cc3)c2c(CO)n1)c1ccccc1 [Example 11, 1-[3-(4-fluorophenyl)-4-(hydroxymethyl)-1H-pyrazolo[4,3-c]pyridin-6-yl]-3-[(1R)-1-phenylethyl]urea] was tested, and the IC50 was 0.45 nM. Cc1nc(NC(=O)N[C@@H](c2ccccc2)C(C)(C)O)cc2[nH]nc(C(F)F)c12 [Example 21, (S)-1-(3-(difluoromethyl)-4-methyl-1H-pyrazolo[4,3-c]pyridin-6-yl)-3-(2-hydroxy-2-methyl-1-phenylpropyl)urea] showed an IC50 of 0.61 nM. CC(C)(O)[C@@H](NC(=O)Nc1cc2[nH]nc(-c3ccc(F)cc3)c2c(CO)n1)c1ccc(F)cc1 [Example 15, 1-[(1S)-1-(4-fluorophenyl)-2-hydroxy-2-methylpropyl]-3-[3-(4-fluorophenyl)-4-(hydroxymethyl)-1H-pyrazolo[4,3-c]pyridin-6-yl]urea] was tested, and the IC50 was 0.29 nM. CC(C)(C)[C@@H](NC(=O)Nc1cc2[nH]nc(-c3ccc(F)cc3)c2c(CO)n1)c1ccccc1 [Example 17, 1-[(1R)-2,2-dimethyl-1-phenylpropyl]-3-[3-(4-fluorophenyl)-4-(hydroxymethyl)-1H-pyrazolo[4,3-c]pyridin-6-yl]urea] showed an IC50 of 8.64 nM. With Cc1cc(-c2n[nH]c3cc(NC(=O)N[C@H](COC(F)F)c4ccccc4)nc(CO)c23)ccn1 [Example 10, 1-[(1S)-2-(difluoromethoxy)-1-phenylethyl]-3-[4-(hydroxymethyl)-3-(2-methylpyridin-4-yl)-1H-pyrazolo[4,3-c]pyridin-6-yl]urea] the IC50 was 0.66 nM.
